In article PMC2933614, “Quantitative in vitro and in vivo pharmacological profile of CE-178253, a potent and selective cannabinoid type 1 (CB1) Receptor Antagonist” (BMC Pharmacology, 2010):

What was measured:
human CB1 receptor = target: T1, human CB1 receptor (Homo sapiens, UniProt P21554); assay: Competition radioligand binding, human CB1
T1 construct: expressed in transfected cells
Description: HEK293 (CB1) or CHO (CB1 and CB2) cells (ATCC) were stably transfected with the human CB1 or CB2 receptors. Rat brain, and recombinant CB1 and CB2 and membranes were prepared as described. A Pierce™ BCA kit was used to determine protein concentrations.
10 μg of membranes per well from human CB1 and CB 2 receptor transfected cells and rat brain was used in the assay. The plates were covered and placed in an incubator at 30°C for 60 min. At the end of the incubation period 125 μl of stop buffer (10% BSA plus TME) was added to the reaction plate. The plates were then harvested onto GF/C filter plates (Perkin Elmer Life Sciences) presoaked in BSA (5 mg/ml) plus TME. Each filter was washed twice with TME and dried overnight. In the morning the filters were counted on a Wallac Trilux™ counter.
Saturation and competition radioligand binding assays were used to characterize membranes prepared from human recombinant CB1 and CB2 and rat brain membranes.

[1] = target: Vanilloid 1 (TRPV1) receptor channel (Homo sapiens, UniProt Q8NER1); assay: TRPV1 functional assay; assay type: biochemical; conditions: range 9-13%, n = 2
Excerpt: Rimonabant also binds weakly to the Vanilloid 1 (TRPV1) receptor channel. […] CE-178253 was not evaluated against TRPM8. Rimonabant has been reported to bind to TRPM8 [21].

[2] = Four day DIO rat food intake and body weight study; assay type: in vivo; conditions: 4-day, DIO rats
Description: Male 15 week old S-D rats which had been maintained on a high fat diet (Research Diets, D12079BM, 45% kcal from fat) for 10 weeks were selected for the DIO weight loss study. DIO rats were singly housed were acclimated to handling and dosing and two days of food intake were recorded to establish baseline food intake values before dosing was initiated. The heaviest animals were randomly sorted and assigned to treatment groups (n = 8 per group). The mean starting weight of all animals was 639 ± 8 g. Rats were dosed (2 mls/kg) with veh. or CE-178253 according to body weight. FI and BW were recorded daily.
DIO rats were treated once daily with veh. (0.5% MC) or CE-178253 at doses of 0.3 mg/kg p.o. or 1 mg/kg p.o. in a 4-day study (Figures 6A and 6B). […] The effects on FI were apparent after the first doses and sustained over the 4-day study period. […] In contrast, there was no change in weight in veh-treated rats. Initial and final body weights of veh-treated rats were 643 ± 15 g and 645 ± 14 g, respectively. Initial and final body weights of 0.3 mg/kg CE-178253-treated rats were 632 ± 11 g and 616 ± 12 g, respectively. Initial and final body weights of 1 mg/kg CE-178253-treated rats were 637 ± 11 g and 602 ± 11 g, respectively. A statistically significant difference in BW between veh and the 1 mg/kg dose was observed (p < 0.05).

[3] = Four day chow-fed rat food intake and body weight study; assay type: in vivo; conditions: chow-fed rats
Description: CE-178253 was evaluated in 4-day chow-fed and DIO S-D rat studies. Male 12-16 week old S-D rats which had been maintained on regular chow were singly housed and acclimated to handling and dosing and two days of food intake were recorded to establish baseline food intake values before dosing was initiated. The animals were randomly sorted and assigned to treatment groups (n = 7-8 per group). Two studies were performed. In study 1 (age = 12 weeks) the mean starting weight of all animals was 370 ± 6 g. In study 2 (age = 16 weeks) the mean starting weight of all animals was 431 ± 11 g. Rats were dosed (2 mls/kg) with veh. or CE-178253 according to body weight. FI and BW were recorded daily.
CE-178253 was also evaluated in chow-fed rats in a 4 day FI and BW study. Rats were treated once daily with veh. (0.5% MC) or CE-178253. In the first study the same doses used in the DIO study were used to compare FI and BW efficacy. […] CE-178253 was clearly efficacious in acute food intake studies in chow-fed rats up to 12 hours (Figure 3). A comparison of 24 hr FI in chow-fed and DIO rats yielded different efficacy in response to CE-178253 treatment. The 1 mg/kg dose yielded an 8% decrease in 24 hr FI compared to veh-treated animals (p = 0.053). […] Initial and final body weights of veh-treated rats were 371 ± 7 g and 390 ± 7 g (n = 8), respectively. Initial and final body weights of 0.3 mg/kg CE-178253-treated rats were 374 ± 7 g and 388 ± 9 g, respectively. Initial and final body weights of 1 mg/kg CE-178253-treated rats were 373 ± 7 g and 390 ± 9 g, (respectively.
Based on the weak efficacy observed at the 0.3 and 1 mg/kg doses the study was repeated using higher doses of CE-178253 (Figures 7A and 7B). At 3 and 10 mg/kg (QD, p.o.) doses, statistically significant decreases in FI and BW were observed. Initial and final body weights of veh.-treated rats were 435 ± 11 g and 451 ± 12 g (n = 8), respectively, […]. Initial and final body weights of 3 mg/kg CE-178253-treated rats were 436 ± 9 g and 427 ± 9 g, respectively, a 2% decline. Initial and final body weights of 10 mg/kg CE-178253-treated rats were 435 ± 11 g and 430 ± 10 g, respectively, […]. […] Thus, as has been reported for other CB1 receptor antagonists it is likely that DIO rats are more sensitive to the anorectic and weight loss effect of CE-178253.

T1 sequence (P21554 whole entry): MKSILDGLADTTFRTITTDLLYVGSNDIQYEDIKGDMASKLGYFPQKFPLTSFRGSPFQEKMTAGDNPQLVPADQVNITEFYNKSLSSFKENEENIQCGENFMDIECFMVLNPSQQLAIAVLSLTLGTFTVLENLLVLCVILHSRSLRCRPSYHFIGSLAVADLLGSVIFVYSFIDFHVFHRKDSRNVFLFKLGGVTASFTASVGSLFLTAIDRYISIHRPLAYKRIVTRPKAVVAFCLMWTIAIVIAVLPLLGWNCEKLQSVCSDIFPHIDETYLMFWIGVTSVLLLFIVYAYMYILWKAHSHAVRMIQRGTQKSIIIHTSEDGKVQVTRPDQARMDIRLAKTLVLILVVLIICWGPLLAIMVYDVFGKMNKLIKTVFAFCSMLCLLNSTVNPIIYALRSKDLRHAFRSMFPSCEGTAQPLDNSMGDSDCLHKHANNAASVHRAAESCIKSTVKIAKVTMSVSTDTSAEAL
Chain of Vanilloid 1 (TRPV1) receptor channel (Q8NER1 whole entry, species assumed): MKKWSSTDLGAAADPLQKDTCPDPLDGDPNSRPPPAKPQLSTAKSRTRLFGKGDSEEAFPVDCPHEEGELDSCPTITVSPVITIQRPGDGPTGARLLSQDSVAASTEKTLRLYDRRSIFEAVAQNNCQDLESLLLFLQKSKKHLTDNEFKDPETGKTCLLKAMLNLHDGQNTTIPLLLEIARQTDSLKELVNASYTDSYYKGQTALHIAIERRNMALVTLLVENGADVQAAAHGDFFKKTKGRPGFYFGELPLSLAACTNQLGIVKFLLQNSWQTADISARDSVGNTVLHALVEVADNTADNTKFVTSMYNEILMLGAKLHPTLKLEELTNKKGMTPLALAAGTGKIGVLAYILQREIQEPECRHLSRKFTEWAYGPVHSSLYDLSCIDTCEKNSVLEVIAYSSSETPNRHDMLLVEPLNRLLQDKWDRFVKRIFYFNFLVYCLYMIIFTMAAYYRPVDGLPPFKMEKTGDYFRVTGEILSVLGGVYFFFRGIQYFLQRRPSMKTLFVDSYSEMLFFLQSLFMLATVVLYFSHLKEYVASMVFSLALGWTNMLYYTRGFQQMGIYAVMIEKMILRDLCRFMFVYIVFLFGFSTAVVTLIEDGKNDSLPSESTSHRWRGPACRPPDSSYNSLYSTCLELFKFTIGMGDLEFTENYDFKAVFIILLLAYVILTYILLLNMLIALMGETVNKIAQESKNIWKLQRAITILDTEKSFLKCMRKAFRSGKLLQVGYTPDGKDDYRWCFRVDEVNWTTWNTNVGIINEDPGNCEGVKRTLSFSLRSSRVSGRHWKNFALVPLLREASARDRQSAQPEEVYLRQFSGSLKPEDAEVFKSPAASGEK

Q: What does the source list for `CCNC1(C(N)=O)CN(c2nc(C)nc3c(-c4ccc(Cl)cc4)c(-c4ccccc4Cl)nn23)C1` [CE-178253]?
A: Concentration giving complete inhibition of [3H]SR141716A binding (human CB1 receptor; not shown): greater than 10 nM; Ki (human CB1 receptor; read-out: Ki, competition binding, hCB1): 0.33 ± 0.07 nM; inhibition at 10 µM [1]: 11%; Decrease in body weight compared to veh ([2]; 0.3 mg/kg p.o. once daily): 3.3%; Final body weight ([2]; 0.3 mg/kg, initial 632 ± 11 g): 616 ± 12 g; Decrease in body weight compared to veh ([2]; 1 mg/kg p.o. once daily): 5.9%; Final body weight ([2]; 1 mg/kg, initial 637 ± 11 g): 602 ± 11 g; Final body weight ([3]; 0.3 mg/kg, 4 day, initial 374 ± 7 g): 388 ± 9 g; Final body weight ([3]; 1 mg/kg, 4 day, initial 373 ± 7 g): 390 ± 9 g; Decrease in 24 hr FI compared to veh-treated animals ([3]; 1 mg/kg, p = 0.053): 8%; Decline in body weight, initial to final ([3]; 3 mg/kg QD p.o., 4 day): 2%; Final body weight ([3]; 3 mg/kg QD p.o., 4 day, initial 436 ± 9 g): 427 ± 9 g; Increase in body weight, initial to final ([3]; 10 mg/kg QD p.o., 4 day): 1%; Final body weight ([3]; 10 mg/kg QD p.o., 4 day, initial 435 ± 11 g): 430 ± 10 g; BW changes vs veh ([3]; 0.3 and 1 mg/kg dosing groups, 4 day): No statistically significant differences
